Test results published in PubChem BioAssay (NCI).
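Protocol summary: plate cells (96-well), add compound at 5 concentrations, incubate 48 h, interpolate endpoints linearly. TGI is the concentration that stops growth completely.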

How the values were obtained:
Test in all cases: NCI tumour cell line growth inhibition, 48 h
HOP-62 NSCLC = system: HOP-62 NSCLC
HCT-116 colon = system: HCT-116 colon
NCI/ADR-RES ovarian = system: NCI/ADR-RES ovarian
SNB-75 CNS = system: SNB-75 CNS
OVCAR-4 ovarian = system: OVCAR-4 ovarian
RXF 393 renal = system: RXF 393 renal
M14 melanoma = system: M14 melanoma
MDA-N = system: MDA-N
SK-MEL-5 melanoma = system: SK-MEL-5 melanoma
BT-549 breast = system: BT-549 breast
DU-145 prostate = system: DU-145 prostate
A498 renal = system: A498 renal
HCC-2998 colon = system: HCC-2998 colon
SF-539 CNS = system: SF-539 CNS
ACHN renal = system: ACHN renal
TK-10 renal = system: TK-10 renal
U251 CNS = system: U251 CNS
SN12C renal = system: SN12C renal
MDA-MB-435 = system: MDA-MB-435
HT29 colon = system: HT29 colon
KM12 colon = system: KM12 colon
IGROV1 ovarian = system: IGROV1 ovarian
SK-OV-3 ovarian = system: SK-OV-3 ovarian
SR leukemia = system: SR leukemia
UO-31 renal = system: UO-31 renal
NCI-H522 lung = system: NCI-H522 lung
OVCAR-5 ovarian = system: OVCAR-5 ovarian
HS 578T breast = system: HS 578T breast
HCT-15 colon = system: HCT-15 colon
MALME-3M melanoma = system: MALME-3M melanoma
UACC-257 melanoma = system: UACC-257 melanoma
LOX IMVI melanoma = system: LOX IMVI melanoma
SF-268 CNS = system: SF-268 CNS
CCRF-CEM leukemia = system: CCRF-CEM leukemia
MOLT-4 leukemia = system: MOLT-4 leukemia
EKVX NSCLC = system: EKVX NSCLC
SK-MEL-2 melanoma = system: SK-MEL-2 melanoma
NCI-H23 lung = system: NCI-H23 lung
OVCAR-8 ovarian = system: OVCAR-8 ovarian
K-562 leukemia = system: K-562 leukemia
786-0 renal = system: 786-0 renal
HOP-92 NSCLC = system: HOP-92 NSCLC
OVCAR-3 ovarian = system: OVCAR-3 ovarian
PC-3 prostate = system: PC-3 prostate
MCF7 breast = system: MCF7 breast
SW-620 colon = system: SW-620 colon
A549 NSCLC = system: A549 NSCLC
MDA-MB-231 breast = system: MDA-MB-231 breast
RPMI-8226 leukemia = system: RPMI-8226 leukemia
SNB-19 CNS = system: SNB-19 CNS
COLO 205 colon = system: COLO 205 colon
HL-60(TB) leukemia = system: HL-60(TB) leukemia
SF-295 CNS = system: SF-295 CNS
CAKI-1 renal = system: CAKI-1 renal
UACC-62 melanoma = system: UACC-62 melanoma
NCI-H226 lung = system: NCI-H226 lung
T-47D breast = system: T-47D breast
SK-MEL-28 melanoma = system: SK-MEL-28 melanoma
NCI-H460 lung = system: NCI-H460 lung

Measured: TGI

COP(=O)(OC)C1=c2c(C)noc2=C2C=COC2C1=O (stereo not drawn)
> 100 µM: HOP-62 NSCLC | HCT-116 colon | NCI/ADR-RES ovarian | SNB-75 CNS | OVCAR-4 ovarian | RXF 393 renal | M14 melanoma | MDA-N | SK-MEL-5 melanoma | BT-549 breast | DU-145 prostate | A498 renal | HCC-2998 colon | SF-539 CNS | ACHN renal | TK-10 renal | U251 CNS | SN12C renal | MDA-MB-435 | HT29 colon | KM12 colon | IGROV1 ovarian | SK-OV-3 ovarian | SR leukemia | UO-31 renal | NCI-H522 lung | OVCAR-5 ovarian | HS 578T breast | HCT-15 colon | MALME-3M melanoma | UACC-257 melanoma | LOX IMVI melanoma | SF-268 CNS | CCRF-CEM leukemia | MOLT-4 leukemia | EKVX NSCLC | SK-MEL-2 melanoma | NCI-H23 lung | OVCAR-8 ovarian | K-562 leukemia | 786-0 renal | HOP-92 NSCLC | OVCAR-3 ovarian | PC-3 prostate | MCF7 breast | SW-620 colon | A549 NSCLC | MDA-MB-231 breast | RPMI-8226 leukemia | SNB-19 CNS | COLO 205 colon | HL-60(TB) leukemia | SF-295 CNS | CAKI-1 renal | UACC-62 melanoma | NCI-H226 lung

CCC(=O)NCC1CCCN2CCCCC12 (stereo not drawn)
> 100 µM: HCT-116 colon | NCI/ADR-RES ovarian | SNB-75 CNS | OVCAR-4 ovarian | RXF 393 renal | MDA-N | SK-MEL-5 melanoma | BT-549 breast | DU-145 prostate | A498 renal | HCC-2998 colon | SF-539 CNS | ACHN renal | TK-10 renal | U251 CNS | SN12C renal | T-47D breast | MDA-MB-435 | HT29 colon | KM12 colon | SK-MEL-28 melanoma | SK-OV-3 ovarian | UO-31 renal | NCI-H460 lung | HS 578T breast | HCT-15 colon | MALME-3M melanoma | UACC-257 melanoma | LOX IMVI melanoma | SF-268 CNS | CCRF-CEM leukemia | MOLT-4 leukemia | EKVX NSCLC | SK-MEL-2 melanoma | NCI-H23 lung | OVCAR-8 ovarian | K-562 leukemia | 786-0 renal | HOP-92 NSCLC | PC-3 prostate | MCF7 breast | SW-620 colon | A549 NSCLC | MDA-MB-231 breast | RPMI-8226 leukemia | SNB-19 CNS | COLO 205 colon | HL-60(TB) leukemia | SF-295 CNS | CAKI-1 renal | UACC-62 melanoma | NCI-H226 lung
